Assay results: PubChem BioAssay AID1963853 (Molecular Pharmacology Branch, DTP, NCI, 2024)

Tested on: 266295-075-R-J1-PDC spheroid viability
Experiment: Anticancer human tumor 266295-075-R-J1-PDC patient-derived head and neck squamous carcinoma cell line growth inhibition [POLQ]
Details: spheroids with HUVEC and MSC; for IC50: curve of first compound; for viability, T/C: stronger effect = lower value
In short: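 Patient-derived tumour cells were co-cultured with HUVEC and mesenchymal stem cells as multicellular spheroids at 37 °C. They were treated with POLQ inhibitors (novobiocin, ART-558, RP6685) alone or combined with other agents. Top concentrations were at or near clinical Cmax (otherwise 10 microM; SN-38 at 1 microM), decreasing in half-log steps.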

[1] = second compound 0.0316 µM, first compound 0.0316 µM
[2] = second compound 0.0316 µM, first compound 0.1 µM
[3] = second compound 0.0316 µM, first compound 0.316 µM
[4] = second compound 0.0316 µM, first compound 1 µM
[5] = second compound 0.0316 µM, first compound 3.16 µM
[6] = second compound 0.0316 µM, first compound 10 µM
[7] = second compound 0.1 µM, first compound 0.0316 µM
[8] = second compound 0.1 µM, first compound 0.1 µM
[9] = second compound 0.1 µM, first compound 0.316 µM
[10] = second compound 0.1 µM, first compound 1 µM
[11] = second compound 0.1 µM, first compound 3.16 µM
[12] = second compound 0.1 µM, first compound 10 µM
[13] = second compound 0.316 µM, first compound 0.0316 µM
[14] = second compound 0.316 µM, first compound 0.1 µM
[15] = second compound 0.316 µM, first compound 0.316 µM
[16] = second compound 0.316 µM, first compound 1 µM
[17] = second compound 0.316 µM, first compound 3.16 µM
[18] = second compound 0.316 µM, first compound 10 µM
[19] = second compound 1 µM, first compound 0.0316 µM
[20] = second compound 1 µM, first compound 0.1 µM
[21] = second compound 1 µM, first compound 0.316 µM
[22] = second compound 1 µM, first compound 1 µM
[23] = second compound 1 µM, first compound 3.16 µM
[24] = second compound 1 µM, first compound 10 µM
[25] = second compound 3.16 µM, first compound 0.0316 µM
[26] = second compound 3.16 µM, first compound 0.1 µM
[27] = second compound 3.16 µM, first compound 0.316 µM
[28] = second compound 3.16 µM, first compound 1 µM
[29] = second compound 3.16 µM, first compound 3.16 µM
[30] = second compound 3.16 µM, first compound 10 µM
[31] = second compound 10 µM, first compound 0.0316 µM
[32] = second compound 10 µM, first compound 0.1 µM
[33] = second compound 10 µM, first compound 0.316 µM
[34] = second compound 10 µM, first compound 1 µM
[35] = second compound 10 µM, first compound 3.16 µM
[36] = second compound 10 µM, first compound 10 µM
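Further: spheroids exposed to compounds for seven days before readout.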

CCc1cc2c(N3CCc4c(cc(Cn5ccnc5)cc4-c4cn(C)nc4C(F)(F)F)C3=O)ccnc2c(OC)n1 + COC1C(OC(N)=O)C(O)C(Oc2ccc3c(O)c(NC(=O)c4ccc(O)c(CC=C(C)C)c4)c(=O)oc3c2C)OC1(C)C
IC50 (second compound 0.0316 µM): > 10 µM
IC50 (second compound 0.1 µM): > 10 µM
IC50 (second compound 0.316 µM): > 10 µM
IC50 (second compound 1 µM): > 10 µM
IC50 (second compound 3.16 µM): > 10 µM
IC50 (second compound 10 µM): > 10 µM
viability, T/C [1]: 88.9%
viability, T/C [2]: 93%
viability, T/C [3]: 119%
viability, T/C [4]: 104%
viability, T/C [5]: 144%
viability, T/C [6]: 132%
viability, T/C [7]: 117%
viability, T/C [8]: 96.8%
viability, T/C [9]: 127%
viability, T/C [10]: 107%
viability, T/C [11]: 114%
viability, T/C [12]: 132%
viability, T/C [13]: 94.8%
viability, T/C [14]: 96.7%
viability, T/C [15]: 95%
viability, T/C [16]: 129%
viability, T/C [17]: 120%
viability, T/C [18]: 115%
viability, T/C [19]: 95.3%
viability, T/C [20]: 80.9%
viability, T/C [21]: 94%
viability, T/C [22]: 102%
viability, T/C [23]: 129%
viability, T/C [24]: 127%
viability, T/C [25]: 100%
viability, T/C [26]: 101%
viability, T/C [27]: 104%
viability, T/C [28]: 117%
viability, T/C [29]: 159%
viability, T/C [30]: 146%
viability, T/C [31]: 90.2%
viability, T/C [32]: 87.7%
viability, T/C [33]: 111%
viability, T/C [34]: 117%
viability, T/C [35]: 145%
viability, T/C [36]: 135%

COc1cc2cc(C(=O)CCC(=O)O)sc2cc1OC + COC1C(OC(N)=O)C(O)C(Oc2ccc3c(O)c(NC(=O)c4ccc(O)c(CC=C(C)C)c4)c(=O)oc3c2C)OC1(C)C
IC50 (second compound 0.0316 µM): > 10 µM
IC50 (second compound 0.1 µM): > 10 µM
IC50 (second compound 0.316 µM): > 10 µM
IC50 (second compound 1 µM): > 10 µM
IC50 (second compound 3.16 µM): > 10 µM
IC50 (second compound 10 µM): > 10 µM
viability, T/C [1]: 99.4%
viability, T/C [2]: 95.9%
viability, T/C [3]: 114%
viability, T/C [4]: 101%
viability, T/C [5]: 95.4%
viability, T/C [6]: 82.4%
viability, T/C [7]: 69.1%
viability, T/C [8]: 90.1%
viability, T/C [9]: 96.8%
viability, T/C [10]: 120%
viability, T/C [11]: 93.8%
viability, T/C [12]: 93.3%
viability, T/C [13]: 97.7%
viability, T/C [14]: 91.6%
viability, T/C [15]: 92.4%
viability, T/C [16]: 99.2%
viability, T/C [17]: 91.5%
viability, T/C [18]: 87.6%
viability, T/C [19]: 100%
viability, T/C [20]: 96.4%
viability, T/C [21]: 97.8%
viability, T/C [22]: 111%
viability, T/C [23]: 93.2%
viability, T/C [24]: 93.4%
viability, T/C [25]: 99.5%
viability, T/C [26]: 90.2%
viability, T/C [27]: 95.6%
viability, T/C [28]: 112%
viability, T/C [29]: 90.7%
viability, T/C [30]: 90.1%
viability, T/C [31]: 114%
viability, T/C [32]: 90.6%
viability, T/C [33]: 96.5%
viability, T/C [34]: 98.5%
viability, T/C [35]: 120%
viability, T/C [36]: 90.2%

O=C(Nc1ccc(O)c(NS(=O)(=O)c2ccc(F)cc2)c1)c1ccc(-c2ccccc2)cc1 + COC1C(OC(N)=O)C(O)C(Oc2ccc3c(O)c(NC(=O)c4ccc(O)c(CC=C(C)C)c4)c(=O)oc3c2C)OC1(C)C
IC50 (second compound 0.0316 µM): > 10 µM
IC50 (second compound 0.1 µM): > 10 µM
IC50 (second compound 0.316 µM): > 10 µM
IC50 (second compound 1 µM): > 10 µM
IC50 (second compound 3.16 µM): > 10 µM
IC50 (second compound 10 µM): > 10 µM
viability, T/C [1]: 93.7%
viability, T/C [2]: 96.6%
viability, T/C [3]: 110%
viability, T/C [4]: 110%
viability, T/C [5]: 128%
viability, T/C [6]: 113%
viability, T/C [7]: 112%
viability, T/C [8]: 87.2%
viability, T/C [9]: 109%
viability, T/C [10]: 112%
viability, T/C [11]: 145%
viability, T/C [12]: 107%
viability, T/C [13]: 101%
viability, T/C [14]: 102%
viability, T/C [15]: 116%
viability, T/C [16]: 104%
viability, T/C [17]: 120%
viability, T/C [18]: 103%
viability, T/C [19]: 111%
viability, T/C [20]: 105%
viability, T/C [21]: 99.7%
viability, T/C [22]: 112%
viability, T/C [23]: 130%
viability, T/C [24]: 112%
viability, T/C [25]: 115%
viability, T/C [26]: 96.6%
viability, T/C [27]: 101%
viability, T/C [28]: 119%
viability, T/C [29]: 136%
viability, T/C [30]: 104%
viability, T/C [31]: 115%
viability, T/C [32]: 94.8%
viability, T/C [33]: 110%
viability, T/C [34]: 100%
viability, T/C [35]: 130%
viability, T/C [36]: 103%
